# Tested on: primary culture of dopaminergic Tyrosine hydroxylase (TH)-positive neurons
# Assay: Cellular model of Parkinson's disease (MPTP/MPP+ injury)
# Format: cell-based, rat
# Excerpt: This model (run by Neuro-Sys SAS, France) is based on a primary culture of dopaminergic Tyrosine hydroxylase (TH)-positive neurons injured with the dopaminergic neurons-specific toxin (DA-toxin) 1-methyl-4-phenyl-1,2,3,6 tetrahydropyridine (MPTP, a prodrug of MPP^+) (Dauer and Przedborski, 2003). Any substances reducing DA-toxin neurotoxicity may be useful as a new therapeutic agent for the treatment or prevention of PD.
# Primary culture of mesencephalic neurons: Rat dopaminergic neurons were cultured as described by Visanji et al., 2008 and Callizot et al., 2019. Briefly, pregnant female rat (Wistar) of 15 days of gestation were killed using a deep anesthesia with CO2 chamber and a cervical dislocation. The midbrains obtained from 15-day-old rat embryos (Janvier, France) were dissected under a microscope. The embryonic midbrains will be removed and placed in ice-cold medium of Leibovitz (L15) containing 2% of Penicillin-Streptomycin (PS) and 1% of bovine serum albumin (BSA). The ventral portion of the mesencephalic flexure, a region of the developing brain rich in dopaminergic neurons, was used for the cell preparations.
# The midbrains were dissociated by trypsinisation for 20 min at 37° C. (solution at a final concentration of 0.05% trypsin and 0.02% EDTA). The reaction was stopped by the addition of Dulbecco's modified Eagle's medium (DMEM) containing DNAase I grade II (0.5 mg/mL) and 10% of foetal calf serum (FCS). Cells were then mechanically dissociated by 3 passages through a 10 ml pipette. Cells were then centrifuged at 180×g for 10 min at +4° C. on a layer of BSA (3.5%) in L15 medium. The supernatant was discarded, and the cell pellets re-suspended in a defined culture medium consisting of Neurobasal supplemented with B27 (2%), L-glutamine (2 mM) and 2% of PS solution and 10 ng/mL of Brain-derived neurotrophic factor (BDNF) and 1 ng/ml of Glial-Derived Neurotrophic Factor (GDNF). Viable cells were counted in a Neubauer cytometer using the trypan blue exclusion test. The cells were seeded at a density of 40,000 cells/well in 96 well-plates (pre-coated with poly-L-lysine) and maintained in a humidified incubator at 37° C. in 5% CO2/95% air atmosphere. Half of the medium was changed every 2 days with fresh medium. The wells of first and last lines and columns […] (to avoid any edge effect) and were be filled with sterile water.
# • i) Pre-incubation. On day 6 of culture, the test compounds were dissolved in PBS or DMSO and incubated for 1 hour before the MPTP exposure. • ii) Injury. One hour after the application of test compound, MPTP was added to a final concentration of 4 μM, diluted in control medium still in presence of compounds/inhibitors for 48 h. Test compounds were tested on one culture in 96-well plate (n=6 culture wells per condition).
# Immunostaining: TH and α-Synuclein. 48 Hours after intoxication, the cell culture supernatant was removed, and the cells were fixed by a solution of 4% paraformaldehyde in PBS, pH=7.3 for 20 min at room temperature. The cells were washed twice in PBS, and then permeabilized. Non-specific sites were blocked with a solution of PBS containing 0.1% of saponin and 1% FCS for 15 min at room temperature. The cultures were incubated with: (a) monoclonal anti-Tyrosine Hydroxylase (TH) antibody produced in mouse at dilution of 1/10000 in PBS containing 1% FCS, 0.1% saponin, for 2 hours at room temperature, and (b) polyclonal anti-alpha synuclein (α-synuclein) antibody produced in rabbit at dilution of 1/200 in PBS containing 1% FCS, 0.1% saponin, for 2 h at room temperature.
# Automatic computer analysis. For each condition, 20 pictures (representing the whole well area) were automatically taken using ImageXpress® (Molecular Devices) at 10× magnification (20 pictures, for TH and α-synuclein into TH neurons) using the same acquisition parameters. From images, analyses was directly and automatically performed by MetaXpress® (Molecular Devices). […]
# [1] = 500 nM, compared to MPP+ injury alone
smiles,measurement,setting,value
"CCN1CCC(N(C)C(=O)c2csc(-c3cnn(-c4ccccc4)c3)n2)CC1 [Compound 196, N-(1-ethylpiperidin-4-yl)-N-methyl-2-(1-phenyl-1H-pyrazol-4-yl)-1,3-thiazole-4-carboxamide]",effects in the in vitro model of PD based on MPP+ injury,,positive effects
same,decrease in α-syn area per dopaminergic TH positive neuron,"100 nM, compared to MPP+ injury alone",26%
same,decrease in α-syn area per dopaminergic TH positive neuron,[1],35%
same,increase in the number of dopaminergic TH positive neurons,[1],26%
same,decrease in α-syn area per dopaminergic TH positive neuron,"1 μM, compared to MPP+ injury alone",19%

# From patent publication US20250034127A1, “AUTOPHAGY INDUCING COMPOUNDS AND USES THEREOF, IN PARTICULAR FOR DISEASES OF THE CNS” (Samsara Therapeutics Inc., priority 2021, published 2025)
